Assays:
Human lysozyme [1] = molecular target: T1, Human lysozyme (Homo sapiens, UniProt P61626); assay: intrinsic fluorescence quenching, excitation […] nm; assay type: binding; settings: double-log; sodium phosphate pH 7.4, lysozyme 10 µM, doxofylline 0–60 µM
T1 construct: gene LYZ
T1 sequence (P61626 19-148): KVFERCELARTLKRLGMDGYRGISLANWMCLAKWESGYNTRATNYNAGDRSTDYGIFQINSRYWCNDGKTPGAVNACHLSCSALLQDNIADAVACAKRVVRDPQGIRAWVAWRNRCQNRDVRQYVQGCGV

Human lysozyme [2] = molecular target: T1, Human lysozyme; assay: UV-vis absorption titration, double-reciprocal plot; assay type: binding
From the text: UV-vis absorption titration, double-reciprocal plot on Human lysozyme

Kb (Human lysozyme [1]): 22900 M⁻¹ | Kd (Human lysozyme [2]): 5.18 µM
SMILES: Cn1c(=O)c2c(ncn2CC2OCCO2)n(C)c1=O [doxofylline]
